Earlier results, collected in patent US8052982B2, “Bioimplant formulation comprising lecithin and stearin” (Peptech Animal Health PTY Limited, priority 1998, dated 2011).

In order of falling “log octanol/water partition (log P)” value:
1. CC(CN1c2ccccc2Sc2ccccc21)N(C)C (centres unmarked) [promethazine]  4.75
2. C[C@@H](O)[C@@H]1NC(=O)[C@H](CCCCN)NC(=O)[C@@H](Cc2c[nH]c3ccccc23)NC(=O)[C@H](Cc2ccccc2)NC(=O)[C@@H](NC(=O)[C@H](N)Cc2ccccc2)CSSC[C@@H](C(=O)N[C@H](CO)[C@@H](C)O)NC1=O [octreotide]  1.40
3. O=C(O)c1ccccc1Nc1cccc(C(F)(F)F)c1 [flufenamic acid]  1.14
4. C[C@H](N[C@@H](CCc1ccccc1)C(=O)O)C(=O)N1[C@H](C(=O)O)C[C@H]2CCCC[C@@H]21 [trandolaprilate]  1.02
5. C[C@H](N[C@@H](CCc1ccccc1)C(=O)O)C(=O)N1Cc2ccccc2C[C@H]1C(=O)O [quinaprilate]  0.69
6. Cn1c(=O)c2c(ncn2CCO)n(C)c1=O [etofylline]  0.35
7. CCC[C@H](N[C@@H](C)C(=O)N1[C@H](C(=O)O)C[C@@H]2CCCC[C@@H]21)C(=O)O [perindoprilate]  −0.36
8. C[C@H](CS)C(=O)N1CCC[C@H]1C(=O)O [captopril]  −1.86
